Drawing on patent US20240368092A1, “2,4-Dihydro-3H-1,2,4-Triazol-3-One P2X7 Antagonists” (Breye Therapeutics ApS, priority 2021, published 2024), this text covers IC50 for eleven molecules.

pIC50: −log10 of the molar value.

Assay type in all cases: cell-based
One test has as its target T1, humanP2X7 (Homo sapiens, UniProt Q99572).
T1 construct: expressed in transfected cells; host or cells: HEK-293
T1 sequence (Q99572 1-595): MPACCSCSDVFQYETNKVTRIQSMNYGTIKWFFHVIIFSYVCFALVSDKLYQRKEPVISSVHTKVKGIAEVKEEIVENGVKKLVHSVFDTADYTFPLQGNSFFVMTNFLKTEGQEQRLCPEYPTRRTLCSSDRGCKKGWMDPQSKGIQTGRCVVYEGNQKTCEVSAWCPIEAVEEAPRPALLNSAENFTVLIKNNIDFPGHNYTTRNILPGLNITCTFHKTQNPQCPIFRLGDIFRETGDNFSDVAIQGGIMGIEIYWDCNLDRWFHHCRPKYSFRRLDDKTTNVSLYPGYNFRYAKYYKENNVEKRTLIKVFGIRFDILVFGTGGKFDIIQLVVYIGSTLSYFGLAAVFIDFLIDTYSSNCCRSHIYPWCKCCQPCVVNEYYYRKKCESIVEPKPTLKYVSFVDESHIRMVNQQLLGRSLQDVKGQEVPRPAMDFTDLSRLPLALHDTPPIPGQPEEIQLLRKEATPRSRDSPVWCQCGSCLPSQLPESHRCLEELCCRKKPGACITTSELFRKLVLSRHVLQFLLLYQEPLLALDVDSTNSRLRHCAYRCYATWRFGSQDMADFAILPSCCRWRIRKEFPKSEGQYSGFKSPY
Nature of the test: P2X7 channel calcium-influx assay (Fluo-8, FLIPR TETRA), human P2X7. To be noted: HEK-293 cells stably transfected with P2X7; Bz-ATP at EC80; low divalent cation buffer; read-out: humanP2X7 (activity range). As for the experimental part:
(§1) Extracellular binding of Bz-ATP to P2X7 receptor opens the channel and allows Ca^2+ influx into the cells. This Ca^2+ entry was measured in HEK-293 cells stably transfected with P2X7 receptor using Screen Quest™ Fluo-8 No Wash Calcium Assay Kit (AAt Bioquest®, cat. 36316). Once inside the cell, the lipophilic blocking groups of Fluo-8 are cleaved by non-specific cell esterases, resulting in a negatively-charged fluorescent dye that stays inside cells. Its fluorescence increases upon binding to calcium. When HEK-293/P2X7 cells are stimulated with Bz-ATP, Ca^2+ enters the cells and the fluorescence of Fluo-8 NW increases. The dye has an absorption spectrum compatible with excitation at 488 nm by argon laser sources and its emission wavelength is in the range of 515-575 nm.
(§2) HEK-293 cells stably transfected with P2X7 receptor were seeded overnight in growth medium at 10,000 to 20,000 cells/well in 384-well plate. 24 hours later, the medium was removed, and the cells were pre-loaded at RT for 1 hour with 20 μL/w of Fluo-8 NW. Then 10 μL/w of test compounds and reference antagonist A438079 at 3×-concentration were injected with the FLIPRTETRA and the kinetic response over a period of five minutes was monitored. A second injection of 15 μL/w of 3× reference activator (Bz-ATP at EC80) was performed with the FLIPR TETRA and the signal of the emitted fluorescence was recorded for additional three minutes. All the experiment was carried out in a Low Divalent Cation Assay Buffer (0.3 mM Ca^2+ and 0 mM Mg^2+). The effect of the test compounds was measured as percent inhibition vs the reference antagonist and IC50 values were calculated accordingly. Here are reported the potency ranges as A, B, C and D, where A is <200 nM; B is 200 nM-1 μM, C is 1-10 μM, D is 10-30 μM.

A further test has as its target T2, ratP2X7 (Rattus norvegicus, UniProt Q64663).
T2 construct: expressed in transfected cells; host or cells: HEK-293
T2 sequence (Q64663 1-595): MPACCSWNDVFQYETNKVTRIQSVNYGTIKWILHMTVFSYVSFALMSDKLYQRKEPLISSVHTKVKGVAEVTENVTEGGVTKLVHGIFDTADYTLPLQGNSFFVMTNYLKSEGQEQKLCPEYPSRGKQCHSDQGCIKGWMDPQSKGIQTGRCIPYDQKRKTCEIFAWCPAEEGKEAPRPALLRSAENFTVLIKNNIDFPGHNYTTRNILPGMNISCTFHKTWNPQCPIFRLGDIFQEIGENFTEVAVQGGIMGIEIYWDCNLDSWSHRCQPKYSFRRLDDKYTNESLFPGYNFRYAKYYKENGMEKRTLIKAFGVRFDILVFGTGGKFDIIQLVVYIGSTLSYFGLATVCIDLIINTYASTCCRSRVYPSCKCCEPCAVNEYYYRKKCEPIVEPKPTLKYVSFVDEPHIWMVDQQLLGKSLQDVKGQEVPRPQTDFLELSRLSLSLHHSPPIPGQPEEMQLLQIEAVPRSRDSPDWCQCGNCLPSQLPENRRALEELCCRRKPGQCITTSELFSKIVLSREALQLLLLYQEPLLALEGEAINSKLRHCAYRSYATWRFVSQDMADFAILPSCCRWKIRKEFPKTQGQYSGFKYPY
Kind of test: P2X7 channel calcium-influx assay (Fluo-8, FLIPR TETRA), rat P2X7. Conditions: HEK-293 cells stably transfected with P2X7; Bz-ATP at EC80; low divalent cation buffer; read-out: ratP2X7 (activity range). As for the experimental part:
as §1, §2

The next test concerns the target T3, human P2X7 channel (Homo sapiens, UniProt Q99572).
T3 construct: expressed in transfected cells; host or cells: HEK-293
T3 sequence (Q99572 1-595): T1 sequence (Q99572 1-595)
Nature of the test: human P2X7 channel assay by automated patch-clamp (QPatch 16X). Conditions: HEK-293 cells expressing P2X7; current evoked by 100 microM BzATP; whole-cell, held at -80 mV; read-out: human Q-Patch (activity range). As to the method:
In order to directly monitor the block of P2X7 channel, an electrophysiological assay was developed and implemented on the QPatchl6X automated electrophysiology instrument.
HEK-293 cells expressing the P2X7 channels were cultured in modified EMEM.
72 hours before experiment, 5 million cells were seeded onto T225 flasks. Just before the experiment cells were washed twice, detached from the flask with trypsin-EDTA, re-suspended in the suspension solution and placed on the QPatch 16x.
The compounds (20 mM in a 100% DMSO) stored at −20° C. were prepared the day of the experiment (a first dilution 1:20 in 100% DMSO to prepare a 1 mM stock solution, then a 1 microM solution in external solution+a serial dilution 1:10).
The standard whole-cell voltage clamp experiments were performed at room temperature. From these experiments the multihole technology was used and the data were sampled at 2 KHz.
The intracellular solution contained (mM) 135 CsF, 10 NaCl, 1 EGTA, 10 HEPES, (pH 7.2 with CsOH) whereas the extracellular contained (mM) 145 NaCl, 4 KCl, 0.5 MgCl2, 1 CaCl2, 10 HEPES, 10 Glc (pH 7.4 with NaOH).
After establishment of the seal and the passage in the whole cell configuration, the cells were held at −80 mV. The P2XR7 current was evoked by applying 100 microM of BzATP alone (4 times) and then in the presence increasing concentrations of the compound under investigation (1, 10, 100 and 1000 nM).
The pre-incubation periods 5 to 8 contain increasing concentrations of the compound of interest (1, 10, 100 and 1000 nM), as illustrated in FIGURE (application protocol).
The maximal inward current evoked by BzATP in absence or presence of increasing concentrations of the compounds under investigation was measured and normalized. The potential […] effect was measured as % of control and as IC50 determined fitting the dose-response curves data with the following equation:
Here are reported the potency ranges as A, B, C and D, where A is <10 nM; B is 10 nM-100 nM, C is 0.1-1 μM, D is 1-10 μM.

The next test deals with T4, mouseP2X7 (Mus musculus, UniProt Q9Z1M0).
T4 construct: expressed in transfected cells; host or cells: HEK-293
T4 sequence (Q9Z1M0 1-595): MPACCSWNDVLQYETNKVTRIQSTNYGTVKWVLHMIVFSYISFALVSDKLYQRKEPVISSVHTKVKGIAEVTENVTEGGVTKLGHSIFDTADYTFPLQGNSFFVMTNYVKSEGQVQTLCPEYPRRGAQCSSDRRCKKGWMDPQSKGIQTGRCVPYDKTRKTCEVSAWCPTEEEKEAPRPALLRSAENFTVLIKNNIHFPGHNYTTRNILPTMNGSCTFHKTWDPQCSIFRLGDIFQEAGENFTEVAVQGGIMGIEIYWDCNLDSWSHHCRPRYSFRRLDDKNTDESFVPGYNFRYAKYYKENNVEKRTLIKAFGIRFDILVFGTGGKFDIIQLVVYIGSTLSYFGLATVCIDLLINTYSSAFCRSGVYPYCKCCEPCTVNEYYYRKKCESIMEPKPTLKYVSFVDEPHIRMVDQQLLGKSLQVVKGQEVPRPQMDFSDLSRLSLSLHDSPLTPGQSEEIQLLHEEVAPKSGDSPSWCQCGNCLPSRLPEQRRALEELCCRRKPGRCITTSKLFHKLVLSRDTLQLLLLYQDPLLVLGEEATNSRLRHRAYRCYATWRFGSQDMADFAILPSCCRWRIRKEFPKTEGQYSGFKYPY
Kind of test: P2X7 channel calcium-influx assay (Fluo-8, FLIPR TETRA), mouse P2X7. Conditions: HEK-293 cells stably transfected with P2X7; Bz-ATP at EC80; low divalent cation buffer; read-out: mouseP2X7 (activity range). As for the experimental part:
as §1, §2

Turning to `Cn1nc(Cc2ccccc2C(F)(F)F)n(CC2CCC(F)(F)C2)c1=O` (centres unmarked) [Example 19, 4-((3,3-difluorocyclopentyl)methyl)-2-methyl-5-(2-(trifluoromethyl)benzyl)-2,4-dihydro-3H-1,2,4-triazol-3-one], the pIC50 was 5.00 to 6.00 on humanP2X7, 6.00 to 6.70 on ratP2X7, 6.00 to 7.00 at human P2X7 channel and 4.52 to 5.00 on mouseP2X7.

Turning to `Cn1nc(Cc2c(F)cccc2Cl)n(CC2CCCO2)c1=O` (centres unmarked) [Example 20, 5-(2-chloro-6-fluorobenzyl)-2-methyl-4-((tetrahydrofuran-2-yl)methyl)-2,4-dihydro-3H-1,2,4-triazol-3-one], the pIC50 is 4.52 to 5.00 on humanP2X7, 4.52 to 5.00 on ratP2X7, 5.00 to 6.00 on human P2X7 channel and 4.52 to 5.00 on mouseP2X7.

Regarding `CN1CCCCC1Cn1c(Cc2c(F)cccc2Cl)nn(C)c1=O` (centres unmarked) [Example 21, 5-(2-chloro-6-fluorobenzyl)-2-methyl-4-((1-methylpiperidin-2-yl)methyl)-2,4-dihydro-3H-1,2,4-triazol-3-one], the pIC50 on humanP2X7 was 5.00 to 6.00; at ratP2X7, 5.00 to 6.00; at human P2X7 channel, 5.00 to 6.00; at mouseP2X7 it was 4.52 to 5.00.

Regarding `Cn1nc(Cc2c(F)cccc2Cl)n(CCN2CCOCC2)c1=O` [Example 22, 5-(2-chloro-6-fluorobenzyl)-2-methyl-4-(2-morpholinoethyl)-2,4-dihydro-3H-1,2,4-triazol-3-one], the pIC50 was 4.52 to 5.00 at humanP2X7, 4.52 to 5.00 at ratP2X7, 5.00 to 6.00 on human P2X7 channel and 4.52 to 5.00 on mouseP2X7.

`Cn1nc(Cc2ccccc2C(F)(F)F)n(CC2CCCCC2(C)C)c1=O` (centres unmarked) [Example 23, 4-((2,2-dimethylcyclohexyl)methyl)-2-methyl-5-(2-(trifluoromethyl)benzyl)-2,4-dihydro-3H-1,2,4-triazol-3-one]: the pIC50 on humanP2X7 is 6.00 to 6.70; at ratP2X7 it was over 6.70; at human P2X7 channel it was 5.00 to 6.00; on mouseP2X7, 6.00 to 6.70.

`Cn1nc(CC2CCCCC2)n(Cc2c(F)cccc2Cl)c1=O` [Example 24, 4-(2-chloro-6-fluorobenzyl)-5-(cyclohexylmethyl)-2-methyl-2,4-dihydro-3H-1,2,4-triazol-3-one]: the pIC50 is 6.00 to 6.70 on humanP2X7, over 6.70 on ratP2X7, 6.00 to 7.00 on human P2X7 channel and 5.00 to 6.00 on mouseP2X7.

For `Cn1nc(CC2CCCCC2)n(Cc2ccccc2C(F)(F)F)c1=O` [Example 25, 5-(cyclohexylmethyl)-2-methyl-4-(2-(trifluoromethyl)benzyl)-2,4-dihydro-3H-1,2,4-triazol-3-one], the pIC50 at humanP2X7 was 5.00 to 6.00; at ratP2X7, 5.00 to 6.00; at human P2X7 channel, 6.00 to 7.00; on mouseP2X7 it was 4.52 to 5.00.

Consider `Cn1nc(Cc2ccccc2F)n(CC2CCC(F)(F)CC2)c1=O` [Example 26, 4-((4,4-difluorocyclohexyl)methyl)-5-(2-fluorobenzyl)-2-methyl-2,4-dihydro-3H-1,2,4-triazol-3-one], for which the pIC50 at humanP2X7 is 6.00 to 6.70; on ratP2X7 it was over 6.70; on human P2X7 channel it was 6.00 to 7.00; on mouseP2X7 it was 5.00 to 6.00.

Regarding `Cn1nc(Cc2ccccc2F)n(CC2CCCCC2)c1=O` [Example 27, 4-(cyclohexylmethyl)-5-(2-fluorobenzyl)-2-methyl-2,4-dihydro-3H-1,2,4-triazol-3-one], the pIC50 at humanP2X7 is 5.00 to 6.00; on ratP2X7, over 6.70; on human P2X7 channel, 5.00 to 6.00; on mouseP2X7 it was 5.00 to 6.00.

Take `Cn1nc(Cc2ccccc2C(F)(F)F)n(CC2CCCCCC2)c1=O` [Example 28, 4-(cycloheptylmethyl)-2-methyl-5-(2-(trifluoromethyl)benzyl)-2,4-dihydro-3H-1,2,4-triazol-3-one]: the pIC50 was 6.00 to 6.70 at humanP2X7, over 6.70 on ratP2X7, 6.00 to 7.00 at human P2X7 channel and 5.00 to 6.00 at mouseP2X7.

Consider `Cn1nc(Cc2ccc(F)cc2)n(Cc2cc(-c3ncc(F)cn3)ccc2Cl)c1=O` [Example 29, 4-(2-chloro-5-(5-fluoropyrimidin-2-yl)benzyl)-5-(4-fluorobenzyl)-2-methyl-2,4-dihydro-3H-1,2,4-triazol-3-one], for which the pIC50 at humanP2X7 was 4.52 to 5.00; at ratP2X7 it was 4.52 to 5.00; at human P2X7 channel, 5.00 to 6.00; on mouseP2X7, 4.52 to 5.00.
